Laboratory results as given in US20260184706A1, “PHENYLSULFONAMIDE DERIVATIVES, PREPARATION METHOD THEREFOR, AND PHARMACEUTICAL COMPOSITION FOR PREVENTION OR TREATMENT OF CANCER CONTAINING SAME AS ACTIVE INGREDIENT” (Korea Research Institute of Chemical Technology, priority 2022, published 2026).

Key:
[1] = biological target: T1, recombinant human PERK protein (Homo sapiens, UniProt Q9NZJ5); test: PKR-like endoplasmic reticulum kinase (PERK) inhibitory capacity, 33P-ATP filter assay; format: biochemical; conditions: 15 uM [gamma-33P-ATP], 40 minutes, room temperature
T1 sequence (Q9NZJ5 30-1116): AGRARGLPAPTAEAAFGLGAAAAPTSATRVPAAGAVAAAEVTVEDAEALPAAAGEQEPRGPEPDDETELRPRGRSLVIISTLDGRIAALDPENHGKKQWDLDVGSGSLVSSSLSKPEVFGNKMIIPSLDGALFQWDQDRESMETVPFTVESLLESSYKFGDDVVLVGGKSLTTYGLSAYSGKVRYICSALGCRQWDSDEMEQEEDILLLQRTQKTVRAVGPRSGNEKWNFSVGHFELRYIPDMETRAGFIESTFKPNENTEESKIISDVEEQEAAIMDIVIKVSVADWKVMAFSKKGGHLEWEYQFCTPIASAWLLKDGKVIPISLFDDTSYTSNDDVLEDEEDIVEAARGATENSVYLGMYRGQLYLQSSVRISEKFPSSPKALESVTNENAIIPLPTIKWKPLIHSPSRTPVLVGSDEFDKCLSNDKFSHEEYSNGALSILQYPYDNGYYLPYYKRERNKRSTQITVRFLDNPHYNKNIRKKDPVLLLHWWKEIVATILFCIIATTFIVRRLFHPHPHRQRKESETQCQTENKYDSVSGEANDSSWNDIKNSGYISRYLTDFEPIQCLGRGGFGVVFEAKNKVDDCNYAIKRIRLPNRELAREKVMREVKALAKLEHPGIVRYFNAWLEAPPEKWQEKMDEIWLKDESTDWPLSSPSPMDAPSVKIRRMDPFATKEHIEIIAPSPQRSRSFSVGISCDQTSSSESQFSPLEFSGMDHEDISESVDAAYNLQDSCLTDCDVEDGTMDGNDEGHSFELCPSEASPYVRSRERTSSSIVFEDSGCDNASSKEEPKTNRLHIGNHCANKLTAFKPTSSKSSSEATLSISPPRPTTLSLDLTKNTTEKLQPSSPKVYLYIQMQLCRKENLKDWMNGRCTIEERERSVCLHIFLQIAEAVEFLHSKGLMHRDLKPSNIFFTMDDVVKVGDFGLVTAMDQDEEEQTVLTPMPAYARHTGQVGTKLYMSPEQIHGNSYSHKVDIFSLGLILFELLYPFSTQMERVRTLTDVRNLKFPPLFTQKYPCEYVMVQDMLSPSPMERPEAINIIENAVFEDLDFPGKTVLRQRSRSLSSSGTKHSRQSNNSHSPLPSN
Protocol: <Experimental Example 1> Evaluation of PKR-Like Endoplasmic Reticulum Kinase (PERK) Inhibitory Capacity
A recombinant human PERK protein was mixed with the compound in a reaction solution (8 mM MOPS pH 7.0, 0.2 mM EDTA, 300 uM RSRSRSRSRSRSRSR, 10 mM Magnesium acetate, 15 uM [gamma-33P-ATP]) and reacted at room temperature for 40 minutes. Then, the reaction was terminated by adding phosphoric acid (0.5%) to the reaction mixture, and 10 ul of the reaction solution was dropped onto a P30 filter. The filter was washed four times in a 0.425% phosphoric acid solution for 4 minutes, then washed once more in methanol, dried, and the PERK activity was measured by scintillation counting. […] The compound was diluted by 1/3 from the highest concentration of 1 uM and treated with a total of 9 concentrations to evaluate the degree of inhibition.

[2] = biological target: recombinant human GCN2 protein (Homo sapiens, UniProt Q9P2K8); test: General control nonderepressible 2 (GCN2) inhibitory capacity, 33P-ATP filter assay; format: biochemical; conditions: recombinant human GCN2, 70 uM [gamma-33P-ATP], 40 minutes, room temperature
Sequence of recombinant human GCN2 protein (Q9P2K8 whole entry): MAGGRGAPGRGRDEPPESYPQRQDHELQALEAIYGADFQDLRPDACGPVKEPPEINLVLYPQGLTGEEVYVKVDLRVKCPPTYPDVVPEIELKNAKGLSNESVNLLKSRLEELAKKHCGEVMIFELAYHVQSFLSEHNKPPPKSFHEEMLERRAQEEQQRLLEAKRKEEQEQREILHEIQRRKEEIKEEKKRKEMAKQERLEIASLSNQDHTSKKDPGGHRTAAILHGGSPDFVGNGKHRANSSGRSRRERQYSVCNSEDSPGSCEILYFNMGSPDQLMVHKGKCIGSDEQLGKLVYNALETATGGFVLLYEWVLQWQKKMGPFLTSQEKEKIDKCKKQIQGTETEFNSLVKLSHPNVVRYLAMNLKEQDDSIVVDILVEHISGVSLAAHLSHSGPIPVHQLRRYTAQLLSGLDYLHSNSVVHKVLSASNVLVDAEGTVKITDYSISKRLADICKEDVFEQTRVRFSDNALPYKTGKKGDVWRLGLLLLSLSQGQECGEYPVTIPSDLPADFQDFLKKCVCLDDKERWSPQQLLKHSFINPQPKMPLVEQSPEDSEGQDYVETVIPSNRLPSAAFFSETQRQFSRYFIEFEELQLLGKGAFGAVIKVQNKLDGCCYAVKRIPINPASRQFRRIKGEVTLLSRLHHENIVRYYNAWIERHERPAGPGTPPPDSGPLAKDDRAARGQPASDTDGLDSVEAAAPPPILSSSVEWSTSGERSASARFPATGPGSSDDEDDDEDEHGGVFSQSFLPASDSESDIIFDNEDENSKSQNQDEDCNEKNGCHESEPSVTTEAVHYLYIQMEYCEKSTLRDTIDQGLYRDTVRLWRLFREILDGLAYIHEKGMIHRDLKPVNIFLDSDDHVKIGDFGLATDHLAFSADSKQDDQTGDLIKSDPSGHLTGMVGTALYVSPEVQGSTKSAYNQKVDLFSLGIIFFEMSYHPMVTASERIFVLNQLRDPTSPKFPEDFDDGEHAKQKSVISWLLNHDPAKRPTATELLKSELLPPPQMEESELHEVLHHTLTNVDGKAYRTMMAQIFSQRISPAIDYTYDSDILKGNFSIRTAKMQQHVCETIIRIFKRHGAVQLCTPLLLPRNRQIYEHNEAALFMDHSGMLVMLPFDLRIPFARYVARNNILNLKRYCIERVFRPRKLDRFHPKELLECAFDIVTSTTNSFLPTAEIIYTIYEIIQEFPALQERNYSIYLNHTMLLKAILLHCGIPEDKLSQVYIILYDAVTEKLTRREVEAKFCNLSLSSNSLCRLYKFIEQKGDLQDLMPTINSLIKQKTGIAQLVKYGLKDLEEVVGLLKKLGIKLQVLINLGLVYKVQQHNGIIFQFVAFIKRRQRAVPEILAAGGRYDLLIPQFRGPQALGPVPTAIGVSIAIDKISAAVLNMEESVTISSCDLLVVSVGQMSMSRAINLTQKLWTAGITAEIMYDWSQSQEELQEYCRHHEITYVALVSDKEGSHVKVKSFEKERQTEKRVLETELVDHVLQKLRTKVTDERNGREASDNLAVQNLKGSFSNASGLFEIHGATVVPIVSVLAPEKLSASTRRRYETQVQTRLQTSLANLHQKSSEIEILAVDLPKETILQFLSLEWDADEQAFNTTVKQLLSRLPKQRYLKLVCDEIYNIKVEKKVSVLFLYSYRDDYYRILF
Protocol: <Experimental Example 2> Evaluation of General Control Nonderepressible 2 (GCN2) Inhibitory Capacity
A recombinant human GCN2 protein was mixed with the compound in a reaction solution (20 mM Tris/HCl pH8.5, 0.2 mM EDTA, 0.1% Tween, 100 mM NaCl, 300 μM RSRSRSRSRSRSRSR, 10 mM Magnesium acetate, 70 uM [gamma-33P-ATP]) and reacted at room temperature for 40 minutes. Then, the reaction was terminated by adding phosphoric acid (0.5%) to the reaction mixture, and 10 ul of the reaction solution was dropped onto a P30 filter. The filter was washed four times in a 0.425% phosphoric acid solution for 4 minutes, then washed once more in methanol, dried, and the GCN2 activity was measured by scintillation counting. […] The compound was diluted by 1/3 from the highest concentration of 1 uM and treated with a total of 9 concentrations to evaluate the degree of inhibition.

SMILES | IC50 [1] [µM] | IC50 [2] [µM]
Cc1nn(C)c(C)c1S(=O)(=O)Nc1ccc(F)c(-c2cc3cnc(N)nc3n(C)c2=O)c1F [Example 3, N-(3-(2-amino-8-methyl-7-oxo-7,8-dihydropyrido[2,3-d]pyrimidin-6-yl)-2,4-difluorophenyl)-1,3,5-trimethyl-1H-pyrazole-4-sulfonamide] | > 1 | 0.3 to 1
Cc1nn(C)c(Cl)c1S(=O)(=O)Nc1ccc(F)c(-c2cc3cnc(N)nc3n(C)c2=O)c1F [Example 2, N-(3-(2-amino-8-methyl-7-oxo-7,8-dihydropyrido[2,3-d]pyrimidin-6-yl)-2,4-difluorophenyl)-5-chloro-1,3-dimethyl-1H-pyrazole-4-sulfonamide] | 0.3 to 1 | > 1
CNc1ncc2cc(-c3c(F)ccc(NS(=O)(=O)c4cc(Cl)ccc4Cl)c3F)c(=O)n(C)c2n1 [Example 20, 2,5-dichloro-N-(2,4-difluoro-3-(8-methyl-2-(methylamino)-7-oxo-7,8-dihydropyrido[2,3-d]pyrimidin-6-yl)phenyl)benzenesulfonamide] | > 1 | 0.1 to 0.3
Cc1c(S(=O)(=O)Nc2ccc(F)c(-c3cc4cnc(N)nc4n(C)c3=O)c2F)c(Cl)nn1C [Example 9, N-(3-(2-amino-8-methyl-7-oxo-7,8-dihydropyrido[2,3-d]pyrimidin-6-yl)-2,4-difluorophenyl)-3-chloro-1,5-dimethyl-1H-pyrazole-4-sulfonamide] | > 1 | 0.3 to 1
Cc1n[nH]c(C)c1S(=O)(=O)Nc1ccc(F)c(-c2cc3cnc(N)nc3n(C)c2=O)c1F [Example 5, N-(3-(2-amino-8-methyl-7-oxo-7,8-dihydropyrido[2,3-d]pyrimidin-6-yl)-2,4-difluorophenyl)-3,5-dimethyl-1H-pyrazole-4-sulfonamide] | > 1 | > 1
Cc1nn(C(F)F)c(C)c1S(=O)(=O)Nc1ccc(F)c(-c2cc3cnc(N)nc3n(C)c2=O)c1F [Example 8, N-(3-(2-amino-8-methyl-7-oxo-7,8-dihydropyrido[2,3-d]pyrimidin-6-yl)-2,4-difluorophenyl)-1-(difluoromethyl)-3,5-dimethyl-1H-pyrazole-4-sulfonamide] | > 1 | > 1
Cc1c(S(=O)(=O)Nc2ccc(F)c(-c3cc4cnc(N)nc4n(C)c3=O)c2F)c(CO)nn1C [Example 10, N-(3-(2-amino-8-methyl-7-oxo-7,8-dihydropyrido[2,3-d]pyrimidin-6-yl)-2,4-difluorophenyl)-3-(hydroxymethyl)-1,5-dimethyl-1H-pyrazole-4-sulfonamide] | > 1 | > 1
Cc1noc(C)c1S(=O)(=O)Nc1ccc(F)c(-c2cc3cnc(N)nc3n(C)c2=O)c1F [Example 13, N-(3-(2-amino-8-methyl-7-oxo-7,8-dihydropyrido[2,3-d]pyrimidin-6-yl)-2,4-difluorophenyl)-3,5-dimethylisoxazole-4-sulfonamide] | 0.3 to 1 | 0.1 to 0.3
Cc1nn(C)c(C(F)(F)F)c1S(=O)(=O)Nc1ccc(F)c(-c2cc3cnc(N)nc3n(C)c2=O)c1F [Example 1, N-(3-(2-amino-8-methyl-7-oxo-7,8-dihydropyrido[2,3-d]pyrimidin-6-yl)-2,4-difluorophenyl)-1,3-dimethyl-5-(trifluoromethyl)-1H-pyrazole-4-sulfonamide] | 0.3 to 1 | 0.1 to 0.3
Cn1c(=O)c(-c2c(F)ccc(NS(=O)(=O)c3ccc(Cl)nc3)c2F)cc2cnc(N)nc21 [Example 6, N-(3-(2-amino-8-methyl-7-oxo-7,8-dihydropyrido[2,3-d]pyrimidin-6-yl)-2,4-difluorophenyl)-6-chloropyridine-3-sulfonamide] | > 1 | > 1

Further lines, results first:

IC50 [1] [µM] | IC50 [2] [µM] | SMILES
< 0.1 | < 0.1 | Cn1c(=O)c(-c2c(F)ccc(NS(=O)(=O)c3ccc(Cl)s3)c2F)cc2cnc(N)nc21 [Example 19, N-(3-(2-amino-8-methyl-7-oxo-7,8-dihydropyrido[2,3-d]pyrimidin-6-yl)-2,4-difluorophenyl)-5-chlorothiophene-2-sulfonamide]
< 0.1 | 0.1 to 0.3 | Cn1c(=O)c(-c2c(F)ccc(NS(=O)(=O)c3cc(C(F)(F)F)ccc3Cl)c2F)cc2cnc(N)nc21 [Example 18, N-(3-(2-amino-8-methyl-7-oxo-7,8-dihydropyrido[2,3-d]pyrimidin-6-yl)-2,4-difluorophenyl)-2-chloro-5-(trifluoromethyl)benzenesulfonamide]
< 0.1 | > 1 | COc1ncc(Cl)cc1S(=O)(=O)Nc1ccc(F)c(-c2cc3cnc(N)nc3n(C)c2=O)c1F [Example 4, N-(3-(2-amino-8-methyl-7-oxo-7,8-dihydropyrido[2,3-d]pyrimidin-6-yl)-2,4-difluorophenyl)-5-chloro-2-methoxypyridine-3-sulfonamide]
0.1 to 0.3 | 0.3 to 1 | Cn1c(=O)c(-c2c(F)ccc(NS(=O)(=O)c3c(Cl)nc4sccn34)c2F)cc2cnc(N)nc21 [Example 15, N-(3-(2-amino-8-methyl-7-oxo-7,8-dihydropyrido[2,3-d]pyrimidin-6-yl)-2,4-difluorophenyl)-6-chloroimidazo[2,1-b]thiazole-5-sulfonamide]
< 0.1 | 0.1 to 0.3 | Cn1c(=O)c(-c2c(F)ccc(NS(=O)(=O)c3cc(F)ccc3F)c2F)cc2cnc(N)nc21 [Example 12, N-(3-(2-amino-8-methyl-7-oxo-7,8-dihydropyrido[2,3-d]pyrimidin-6-yl)-2,4-difluorophenyl)-2,5-difluorobenzene sulfonamide]
0.1 to 0.3 | 0.1 to 0.3 | Cn1c(=O)c(-c2c(F)ccc(NS(=O)(=O)c3cccnc3Cl)c2F)cc2cnc(N)nc21 [Example 11, N-(3-(2-amino-8-methyl-7-oxo-7,8-dihydropyrido[2,3-d]pyrimidin-6-yl)-2,4-difluorophenyl)-2-chloropyridine-3-sulfonamide]
< 0.1 | < 0.1 | Cn1c(=O)c(-c2c(F)ccc(NS(=O)(=O)c3cc(Cl)ccc3Cl)c2F)cc2cnc(N)nc21 [Example 14, N-(3-(2-amino-8-methyl-7-oxo-7,8-dihydropyrido[2,3-d]pyrimidin-6-yl)-2,4-difluorophenyl)-2,5-dichlorobenzenesulfonamide]
< 0.1 | 0.1 to 0.3 | Cn1ccc2c(S(=O)(=O)Nc3ccc(F)c(-c4cc5cnc(N)nc5n(C)c4=O)c3F)cccc21 [Example 7, N-(3-(2-amino-8-methyl-7-oxo-7,8-dihydropyrido[2,3-d]pyrimidin-6-yl)-2,4-difluorophenyl)-1-methyl-1H-indole-4-sulfonamide]
< 0.1 | 0.1 to 0.3 | Cn1c(=O)c(-c2c(F)ccc(NS(=O)(=O)c3cccc4ccccc34)c2F)cc2cnc(N)nc21 [Example 16, N-(3-(2-amino-8-methyl-7-oxo-7,8-dihydropyrido[2,3-d]pyrimidin-6-yl)-2,4-difluorophenyl)naphthalene-1-sulfonamide]
0.1 to 0.3 | 0.3 to 1 | Cn1cc(S(=O)(=O)Nc2ccc(F)c(-c3cc4cnc(N)nc4n(C)c3=O)c2F)c(C(F)(F)F)n1 [Example 17, N-(3-(2-amino-8-methyl-7-oxo-7,8-dihydropyrido[2,3-d]pyrimidin-6-yl)-2,4-difluorophenyl)-1-methyl-3-(trifluoromethyl)-1H-pyrazole-4-sulfonamide]
